In patent US20200222377A1, “Methods Of Enhancing And/Or Stabilizing Cardiac Function In Patients With Fabry Disease” (Amicus Therapeutics, Inc., priority 2017, published 2020):

Experiments:
ERT-naïve Fabry patients [1] = test: Phase 3 study of migalastat therapy in ERT-naïve Fabry patients: MWFS by echocardiography; assay type: in vivo, human; settings: for Change from baseline in MWFS, mean / Mean change from baseline in MWFS: amenable mutations
Method: This example describes a Phase 3 study of migalastat therapy in ERT-naïve Fabry patients. Patient Enrollment. […] Study Design. […] Echocardiography. LVMi, left posterior wall thickness, diastolic, interventricular septum thickness, diastolic and other parameters were assessed through blinded, centralized evaluation. Baseline MWFS. At baseline, impaired MWFS (<15% for females and <14% for males) was reported in 9 patients.

[2] = tested on: ERT-experienced Fabry patients; test: Phase 3 study of migalastat therapy in ERT-experienced Fabry patients: MWFS by echocardiography; assay type: in vivo, human
Method: This example describes a Phase 3 study of migalastat therapy in ERT-experienced Fabry patients.
Study Design. Following eligibility-baseline assessments, 57 patients were randomized to 18 months of migalastat therapy or ERT, followed by followed by 12 months of migalastat therapy. The migalastat dosing regimen was 150 mg of migalastat hydrochloride every other day.
Baseline MWFS. At baseline, impaired MWFS (<15% for females and <14% for males) was reported in 19 (14 migalastat, 5 ERT) patients.

ERT-naïve Fabry patients [3] = settings: human, in vivo
Method: (§1) Study Design. Following eligibility-baseline assessments (2 months), patients were randomized to Stage 1—6 months of double-blind administration of 150 mg migalastat hydrochloride or placebo every other day. All patients completing Stage 1 were eligible to receive open-label migalastat in Stage 2 (months 6-12) and for an additional year (months 13-24) thereafter. The primary objective was to compare the effect of migalastat to placebo on kidney GL-3 as assessed by histological scoring of the number of inclusions in interstitial capillaries after 6 months of treatment. The secondary objectives of Stage 1 were to compare the effect of migalastat to placebo on urine GL-3 levels, on renal function, 24-hours urinary protein, and on safety and tolerability. The tertiary objectives were cardiac function, patient-reported outcomes, exploratory kidney analyses, and white blood cell α-Gal A activity. Study completers were eligible to enroll in the open-label extension study for up to 5 years.
(§2) Safety Analysis and Adverse Events. Randomized patients receiving ≥1 dose were included in the safety analysis, which comprised vital signs, physical exams, electrocardiograms, clinical labs, and adverse events.

[4] = target: T1, wild-type α-Gal A and specific mutant forms of α-Gal A (Homo sapiens, UniProt P06280); settings: selective and reversible binding; cited from earlier work
T1 sequence (P06280 32-429): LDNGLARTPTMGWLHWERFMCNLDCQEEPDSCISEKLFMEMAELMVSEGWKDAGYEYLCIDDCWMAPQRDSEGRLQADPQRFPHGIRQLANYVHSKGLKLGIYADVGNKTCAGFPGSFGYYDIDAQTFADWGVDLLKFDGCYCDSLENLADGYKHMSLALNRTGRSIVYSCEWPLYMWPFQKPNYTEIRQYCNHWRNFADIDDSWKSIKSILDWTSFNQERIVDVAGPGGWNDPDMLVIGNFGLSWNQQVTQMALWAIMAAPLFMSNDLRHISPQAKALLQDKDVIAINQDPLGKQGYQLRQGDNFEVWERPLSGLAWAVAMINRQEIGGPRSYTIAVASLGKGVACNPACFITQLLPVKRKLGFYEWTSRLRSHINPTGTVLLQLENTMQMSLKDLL

ERT-naïve Fabry patients [5] = test: Phase 3 study in ERT-naïve Fabry patients: safety analysis and adverse events
Method: as §1, §2

[6] = patients with LVH at baseline, Month 48
[7] = open-label-extension (months 12-24), 6/57 patients

OC[C@H]1NC[C@H](O)[C@@H](O)[C@H]1O [migalastat, (2R,3S,4R,5S)-2-(hydroxymethyl) piperdine-3,4,5-triol]
Effect on MWFS (in words) (ERT-naïve Fabry patients [1]; ERT-naïve patients with impaired MWFS at baseline): increased MWFS
Change from baseline in MWFS, mean (ERT-naïve Fabry patients [1]; patients with LVH at baseline, LOCF, over 48 months): 1.0%
Change from baseline in MWFS, mean (ERT-naïve Fabry patients [1]; patients with LVH at baseline, Month 12): 0.2%
Change from baseline in MWFS, mean (ERT-naïve Fabry patients [1]; patients with LVH at baseline, Month 24): 0.9%
Change from baseline in MWFS, mean (ERT-naïve Fabry patients [1]; patients with LVH at baseline, Month 36): 0.7%
Change from baseline in MWFS, mean (ERT-naïve Fabry patients [1]; [6]): 0.6%
Normalization of MWFS, patients n/N (%) (ERT-naïve Fabry patients [1]; [6]): 0
Mean change from baseline in MWFS (ERT-naïve Fabry patients [1]; patients with impaired MWFS at baseline, LOCF, over 48 months): 1.9%
Mean change from baseline in MWFS (ERT-naïve Fabry patients [1]; patients with impaired MWFS at baseline, LOCF, over 48 months, listed as Migalastat): 1.9%
Mean change from baseline in MWFS (ERT-naïve Fabry patients [1]; patients with impaired MWFS at baseline, Month 12, 150 mg migalastat HCl QOD): 0.1%
Mean change from baseline in MWFS (ERT-naïve Fabry patients [1]; patients with impaired MWFS at baseline, Month 24): 1.4%
Mean change from baseline in MWFS (ERT-naïve Fabry patients [1]; patients with impaired MWFS at baseline, Month 36): 1.4%
Mean change from baseline in MWFS (ERT-naïve Fabry patients [1]; patients with impaired MWFS at baseline, Month 48): 2.4%
Normalization of MWFS, patients n/N (%) (ERT-naïve Fabry patients [1]; patients with impaired MWFS at baseline, Month 12): 0
Effect on MWFS (in words) ([2]; ERT-experienced patients with impaired MWFS at baseline): stabilized MWFS
Mean change from baseline in MWFS ([2]; patients with impaired MWFS at baseline, LOCF, over 30 months of migalastat therapy, n=14): −0.2%
Deaths (ERT-naïve Fabry patients [3]): No deaths were reported
Binding to the active site of α-Gal A (in words) [4]: high affinity
Patients who experienced serious adverse events (ERT-naïve Fabry patients [5]; Stage 1, migalastat group): 2 patients
Patients who experienced serious adverse events (ERT-naïve Fabry patients [5]; Stage 2): 5 patients
Adverse event frequency: procedural pain (related to kidney biopsies) (ERT-naïve Fabry patients [5]; Stage 2 (months 6-12, open-label), 7/63 patients): 11%
Adverse event frequency: headache (ERT-naïve Fabry patients [5]; Stage 2 (months 6-12, open-label), 9/63 patients): 14%
Progression to end-stage renal disease, cardiac death, stroke (ERT-naïve Fabry patients [5]; as defined in Banikazemi et al.): no progression to end-stage renal disease, no cardiac death and no stroke
Patients who discontinued migalastat due to serious adverse events (ERT-naïve Fabry patients [5]; both deemed unrelated to migalastat): Two
Serious adverse events assessed as possibly related to migalastat by the investigator (ERT-naïve Fabry patients [5]; fatigue and paresthesia, same patient, months 12-24, resolved): Two
Adverse events leading to migalastat discontinuation (ERT-naïve Fabry patients [5]; human, in vivo): No adverse events led to migalastat discontinuation
Severity of most adverse events (ERT-naïve Fabry patients [5]; human, in vivo): mild or moderate in severity
Vital sign, physical findings, laboratory and ECG parameters (ERT-naïve Fabry patients [5]; human, in vivo): did not reveal any clinically relevant effect
Transient ischemic attack (ERT-naïve Fabry patients [5]; judged unrelated to migalastat): single case
Patients who experienced serious adverse events (ERT-naïve Fabry patients [5]; open-label-extension): 11 patients
Adverse event frequency: bronchitis (ERT-naïve Fabry patients [5]; [7]): 11%
Adverse event frequency: headache (ERT-naïve Fabry patients [5]; [7]): 11%
Adverse event frequency: proteinuria (treatment-emergent) (ERT-naïve Fabry patients [5]; open-label-extension (months 12-24), 9/57 patients): 16%
Patients in whom 24-hour urine protein remained stable during migalastat treatment (ERT-naïve Fabry patients [5]; patients with baseline proteinuria <300 mg/24-h): 23/28
